The assay relates to panel of 16 representative strains of different species of the genus Candida. In words: Antifungal activity (MIC80) against a panel of Candida strains, comparison. The format is cell-based. To be noted: azole-susceptible strains. Here is the method: The antifungal activities of the 24 azole-COX inhibitor hybrids were evaluated against a panel of 16 representative strains of different species of the genus Candida. Candida species cause both superficial and systemic infections. The panel included strains of C. albicans, C. glabrata, C. parapsilosis, C. tropicalis, C. guilliermondii, C. dubliniensis, and C. auris (Table S2). To evaluate antifungal activity, the minimal inhibitory concentration 80% (MIC80) values were determined, which were defined as the lowest drug concentrations with turbidity (measured at OD600) less than or equal to that of specific 1:5 dilutions of the growth control. As controls, FLC and VOR, were tested.
MIC80 values were determined using the broth microdilution method over a concentration range of 0.003-64 μg/mL. Orange circles represent C. albicans strains, yellow circles represent C. glabrata strains, and green circles represent C. parapsilosis, C. tropicalis, C. dubliniensis and C. auris. Cells were grown in YPAD medium at 30° C. (For C. auris strains 37° C.) 24 h. Each concentration was tested in triplicate, and results were confirmed in at least two independent experiments.
C. albicans, C. glabrata, C. parapsilosis, C. guilliermondii, C. tropicalis, and C. dubliniensis MICs were determined using CLSI M27-A3 guidelines with minor modifications. Starter cultures were streaked from glycerol stock onto YPAD agar plates and grown for 24 h at 30° C. Colonies were suspended in 1 mL PBS and diluted to 1×10^−3 OD600 and then diluted 1:100 into fresh medium. Hybrids dissolved in DMSO were added to YPAD broth (32 μL stock solution in 1218 μL of YPAD broth), and serial double dilutions of hybrids in YPAD were prepared in flat-bottomed 96-well microplates (Corning) to enable testing of concentrations ranging from 64 μg/mL to 0.003 μg/mL. Control wells with yeast cells but no drug and blank wells containing only YPAD were prepared. An equal volume (100 μL) of yeast suspensions in YPAD broth was added to each well with the exceptions of the blank wells. MIC values (Tables S4-S6) were determined after 24 h at 30° C. by measuring the OD600 using a plate reader (Infinite M200 PRO, Tecan). MIC values were defined as the point at which the OD600 was reduced by >80% compared to the no-drug wells. Each concentration was tested in triplicate, and results were confirmed by two independent sets of experiments. FLC and VOR were used as control drugs.

From patent publication US20250018048A1, “FLUCONAZOLE-COX INHIBITOR HYBRIDS: A DUAL-ACTING CLASS OF ANTIFUNGAL AZOLES” (Ramot at Tel-Aviv University Ltd., priority 2022, published 2025) come the findings set out here.

Entries after “also recorded” stand apart in the source; their conditions may differ.

With `CC(C)Cc1ccc([C@H](C)C(=O)NC[C@](O)(Cn2cncn2)c2ccc(F)cc2F)cc1` [Hybrid 1], the “Antifungal potency (MIC80) in comparison with FLC, VOR or the corresponding stereoisomer” value is “lowest MIC80 values against all of the azole-susceptible strains; also recorded: up to two orders of magnitude more potent than FLC and was as potent as VOR”.

Turning to `C[C@H](C(=O)NC[C@](O)(Cn1cncn1)c1ccc(F)cc1F)c1ccc(-c2ccccc2)c(F)c1` [Hybrid 5], the “Antifungal potency (MIC80) in comparison with FLC, VOR or the corresponding stereoisomer” value is recorded as “lowest MIC80 values against all of the azole-susceptible strains; also recorded: more potent than the corresponding R-configured ibuprofen hybrid 6”.
